Our source for the inhibition and IC50 values is patent US12448410B2, “Derivative of sarsasapogenin, pharmaceutical composition and use thereof” (Phytovent Biopharma, priority 2018, dated 2025).

Holding throughout (assay type): cell-based
Assay [1] relates to A549 lung cancer cells. As to the kind of experiment: CTG cell proliferation, in vitro growth inhibition of A549 lung cancer cells. The following applies: Homo sapiens, 72 hours, CellTiter-Glo. As to the method: (§1) Study of CTG Cell Proliferation—Inhibition of In-Vitro Growth of Various Tumor Cells by Sarsasapogenin Derivative
(§2) Tumor cells included: human A549 cells (lung cancer cells) (ATCC, Catalog No. CCL-185), HeLa cells (cervical cancer cells) (ATCC, Catalog No. CCL-2), HepG2 cells (liver cancer cells) (ATCC, Catalog No. HB-8065), A375 cells (melanoma cells) (ATCC, Catalog No. CRL-1619), MCF-7 (breast cancer cell) (ATCC, Catalog No. HTB-22), U87MG (brain glioma cell) (ATCC, Catalog No. HTB-14), LN229 (ATCC, Catalog No. CRL-2611), A172 (ATCC, Catalog No. CRL-1620), KNS-42 (JCRB, Catalog No. IF050356), BE(2)-C (ATCC, Catalog No. CRL-2268), U118MG (ATCC, Catalog No. HTB-15), SW-1088 (ATCC, Catalog No. HTB-12), and SH-SY5Y (CLS, Catalog No. 300154).
(§3) The aforementioned tumor cells were inoculated into clear-bottom white 96-well culture plates (Corning, Catalog No. CLS3903) containing specific medium at 1.8 to 15×10^3 cells per well, and were incubated in an incubator (37° C., 5% CO2) for 24 hours.
(§4) A 10 mM stock solution was prepared by using DMSO (Sigma, Catalog No. D2650) for each compound, diluted with medium to required concentrations (final concentration of DMSO: 0.2%) and added into each well with 2 replicate wells/concentration. The cells were incubated in the incubator at 37° C. and 5% CO2 for 72 hours. Then, 100 μL of CellTiter-Glo® cell activity assay reagent (Promega, Catalog No. G7573) was added into each well and well mixed using a shaker for 10 minutes to induce cytolysis. The 96-well plates were let stand at room temperature for 10 minutes to stabilize the luminous signals. With white bottom membranes attached to the bottoms of the culture plates, the plates were read using EnSpire system. Data were processed by XLfit software to give IC50 values.

For assay [2], the system named is U87MG (brain glioma cell). The experiment in a line: CTG cell proliferation, brain tumor cells U87MG. The following applies: Homo sapiens, U-87 MG, 72 hours, CellTiter-Glo, read-out: Inhibition of in vitro growth of brain tumor cells (IC50). As to the method: as §1, §2, §3, §4
Assay [3] deals with LN229. As to the kind of experiment: CTG cell proliferation, brain tumor cells LN229. The following applies: Homo sapiens, LN-229; LN229, 72 hours, CellTiter-Glo; read-out: Inhibition of in vitro growth of brain tumor cells (IC50). As to the method:
as §1, §2, §3, §4

Assay [4] deals with A172. The experiment in a line: CTG cell proliferation, brain tumor cells A172. The following applies: Homo sapiens, A 172; A172, 72 hours, CellTiter-Glo; read-out: Inhibition of in vitro growth of brain tumor cells (IC50). The procedure: as §1, §2, §3, §4
Assay [5] deals with KNS-42. The experiment in a line: CTG cell proliferation, brain tumor cells KNS-42. As to conditions: Homo sapiens; KNS-42, 72 hours, CellTiter-Glo; read-out: Inhibition of in vitro growth of brain tumor cells (IC50). The procedure:
as §1, §2, §3, §4

Assay [6] has as its system BE(2)-C. As to the kind of experiment: CTG cell proliferation, brain tumor cells BE(2)-C. The following applies: Homo sapiens, 72 hours, CellTiter-Glo, read-out: Inhibition of in vitro growth of brain tumor cells (IC50). The procedure: as §1, §2, §3, §4
The test system of assay [7] is U118MG. The experiment in a line: CTG cell proliferation, brain tumor cells U118MG. As to conditions: Homo sapiens, U-118-MG, 72 hours, CellTiter-Glo, read-out: Inhibition of in vitro growth of brain tumor cells (IC50). The procedure: as §1, §2, §3, §4
Assay [8] concerns SW-1088. The experiment in a line: CTG cell proliferation, brain tumor cells SW-1088. The following applies: Homo sapiens, SW1088; SW-1088, 72 hours, CellTiter-Glo; read-out: Inhibition of in vitro growth of brain tumor cells (IC50). As to the method:
as §1, §2, §3, §4

The subject of assay [9] is SH-SY5Y. As to the kind of experiment: CTG cell proliferation, brain tumor cells SH-SY5Y. As to conditions: Homo sapiens, 72 hours, CellTiter-Glo, read-out: Inhibition of in vitro growth of brain tumor cells (IC50). As to the method: as §1, §2, §3, §4

Molecules are shown by their SMILES. Some results are limits rather than exact numbers.

In the case of `C[C@H]1CC[C@@]2(OC1)O[C@H]1C[C@H]3[C@@H]4CC[C@@H]5CC(NC(=O)C6CCN(C)CC6)CC[C@]5(C)[C@H]4CC[C@]3(C)[C@H]1[C@@H]2C` (stereo partly drawn) [Example 1], in [1], the inhibition at 1 µM is -5.25%, the inhibition at 5 µM was 31.1% and the inhibition at 10 µM was found to be 87.6%.
Turning to `C[C@H]1CC[C@@]2(OC1)O[C@H]1C[C@H]3[C@@H]4CC[C@@H]5C[C@@H](NC(=O)CCN6CCN(C)CC6)CC[C@]5(C)[C@H]4CC[C@]3(C)[C@H]1[C@@H]2C` [Example 2A], the concentration for half-maximal inhibition (IC50) in assay [2] turned out to be 1.56 µM; in [3], 1.62 µM; in [4], 1.66 µM; in assay [5], 1.77 µM; in [6] it was 2.85 µM; in assay [7], 1.07 µM. The IC50 in assay [8] is 0.66 µM; in assay [9], 2.78 µM.
For the compound `C[C@H]1CC[C@@]2(OC1)O[C@H]1C[C@H]3[C@@H]4CC[C@@H]5C[C@H](NC(=O)CCN6CCN(C)CC6)CC[C@]5(C)[C@H]4CC[C@]3(C)[C@H]1[C@@H]2C` [Example 2B], the IC50 in [2] stood at 4.66 µM; in [3] it was 5.52 µM; in [4] it was 3.84 µM; in [5] it was 4.78 µM; in [6] it was 7.9 µM; in [7], 5.17 µM. In addition, the IC50 in assay [8] was 2.75 µM; in assay [9] it was greater than 10 µM.
On to `C[C@H]1CC[C@@]2(OC1)O[C@H]1C[C@H]3[C@@H]4CC[C@@H]5CC(NC(=O)CCN6CCN(C)CC6)CC[C@]5(C)[C@H]4CC[C@]3(C)[C@H]1[C@@H]2C` (stereo partly drawn) [Example 2], for which, in assay [1], the inhibition at 1 µM came out at 95.3%, the inhibition at 5 µM stood at 98.1% and the inhibition at 10 µM was found to be 100%.
The like results for `C[C@H]1CC[C@@]2(OC1)O[C@H]1C[C@H]3[C@@H]4CC[C@@H]5CC(NC(=O)CN(C)C)CC[C@]5(C)[C@H]4CC[C@]3(C)[C@H]1[C@@H]2C` (stereo partly drawn) [Example 3] were, in that order, 1%, 86.2% and 99%.
With `C[C@H]1CC[C@@]2(OC1)O[C@H]1C[C@H]3[C@@H]4CC[C@@H]5CC(NC(=O)CCN(C)C)CC[C@]5(C)[C@H]4CC[C@]3(C)[C@H]1[C@@H]2C` (stereo partly drawn) [Example 4], in assay [1], the inhibition at 1 µM is 18.2%. In addition, the inhibition at 5 µM in [1] amounted to 99%. Moreover, the inhibition at 10 µM in assay [1] came to 100%. The IC50 in assay [2] came to 2.36 µM; in assay [3] it was 2.29 µM; in assay [4] it was 3.04 µM; in assay [5] it was 1.92 µM; in assay [6] it was 3.31 µM; in assay [7], 1.93 µM. Also, the IC50 in [8] turned out to be 2.72 µM; in [9], 2.8 µM.
Take `C[C@H]1CC[C@@]2(OC1)O[C@H]1C[C@H]3[C@@H]4CC[C@@H]5CC(NC(=O)CC(=O)N6CCN(C)CC6)CC[C@]5(C)[C@H]4CC[C@]3(C)[C@H]1[C@@H]2C` (stereo partly drawn) [Example 5]: in assay [1], the inhibition at 1 µM came to 1.37%, the inhibition at 5 µM stood at 48.3% and the inhibition at 10 µM came out at 95.9%.
Turning to `C[C@H]1CC[C@@]2(OC1)O[C@H]1C[C@H]3[C@@H]4CC[C@@H]5CC(NC(=O)CC(=O)NC6CCN(C)CC6)CC[C@]5(C)[C@H]4CC[C@]3(C)[C@H]1[C@@H]2C` (stereo partly drawn) [Example 6], in assay [1], the inhibition at 1 µM was -6.51%, the inhibition at 5 µM was 82.2% and the inhibition at 10 µM was determined as 99.8%.
For the compound `C[C@H]1CC[C@@]2(OC1)O[C@H]1C[C@H]3[C@@H]4CC[C@@H]5CC(NC(=O)CC(=O)NCC6CCN(C)CC6)CC[C@]5(C)[C@H]4CC[C@]3(C)[C@H]1[C@@H]2C` (stereo partly drawn) [Example 7], in assay [1], the inhibition at 1 µM is -0.84%, the inhibition at 5 µM is 91.7% and the inhibition at 10 µM was 99.9%.
The matching figures for `C[C@H]1CC[C@@]2(OC1)O[C@H]1C[C@H]3[C@@H]4CC[C@@H]5CC(NC(=O)CC(=O)NCCCN6CCOCC6)CC[C@]5(C)[C@H]4CC[C@]3(C)[C@H]1[C@@H]2C` (stereo partly drawn) [Example 8]: 36.2%, 7.71% and 93.5%.
The like results for `C[C@H]1CC[C@@]2(OC1)O[C@H]1C[C@H]3[C@@H]4CC[C@@H]5CC(NC(=O)CC(=O)N6CCC(N7CCCCC7)CC6)CC[C@]5(C)[C@H]4CC[C@]3(C)[C@H]1[C@@H]2C` (stereo partly drawn) [Example 9] were, in that order, 2.09%, 22.9% and 97.8%.
The matching figures for `C[C@H]1CC[C@@]2(OC1)O[C@H]1C[C@H]3[C@@H]4CC[C@@H]5CC(NC(=O)CC(=O)N6CCNCC6)CC[C@]5(C)[C@H]4CC[C@]3(C)[C@H]1[C@@H]2C` (stereo partly drawn) [Example 10]: 5.08%, 65.8% and 99.3%.
As to `C[C@H]1CC[C@@]2(OC1)O[C@H]1C[C@H]3[C@@H]4CC[C@@H]5CC(NC(=O)CC(=O)N6CC7CNCC7C6)CC[C@]5(C)[C@H]4CC[C@]3(C)[C@H]1[C@@H]2C` (stereo partly drawn) [Example 11], in assay [1], the inhibition at 1 µM was found to be 3.86%, the inhibition at 5 µM amounted to 57.3% and the inhibition at 10 µM is 97.2%.
Consider `C[C@H]1CC[C@@]2(OC1)O[C@H]1C[C@H]3[C@@H]4CC[C@@H]5CC(NC(=O)CC(=O)N6CCN(CCN7CCCC7)CC6)CC[C@]5(C)[C@H]4CC[C@]3(C)[C@H]1[C@@H]2C` (stereo partly drawn) [Example 12], for which, in assay [1], the inhibition at 1 µM was 4.5%, the inhibition at 5 µM amounted to 89.6% and the inhibition at 10 µM was found to be 98.5%.
